Laboratory results as given in ChEMBL document CHEMBL5303573, “Mapping human microbiome drug metabolism by gut bacteria and their genes” (Nature, 2019).

What was measured:
[1] = The drug is tested on Collinsella intestinalis strain: DSM13280 for biotransformation. The drug concentrations were measured before and after a 12-h incubation by liquid-chromatography-coupled mass spectrometry (LC–MS); settings: 2 µM
[2] = bifidobacterium adolescentis, 12 h, 2 µM
Description: The drug is tested on Bifidobacterium adolescentis strain: ATCC 15703 for biotransformation. The drug concentrations were measured before and after a 12-h incubation by liquid-chromatography-coupled mass spectrometry (LC–MS)

[3] = bacteroides thetaiotaomicron, 12 h, 2 µM
Description: The drug is tested on Bacteroides thetaiotaomicron strain: VPI-5482 for biotransformation. The drug concentrations were measured before and after a 12-h incubation by liquid-chromatography-coupled mass spectrometry (LC–MS)

[4] = limosilactobacillus reuteri cf48-3a, 12 h, 2 µM
Description: The drug is tested on Lactobacillus reuteri CF48-3A strain: BEI HM-102 for biotransformation. The drug concentrations were measured before and after a 12-h incubation by liquid-chromatography-coupled mass spectrometry (LC–MS)

[5] = The drug is tested on Bifidobacterium breve strain: DSM20213 for biotransformation. The drug concentrations were measured before and after a 12-h incubation by liquid-chromatography-coupled mass spectrometry (LC–MS); settings: 2 µM
[6] = parabacteroides distasonis, 12 h, 2 µM
Description: The drug is tested on Parabacteroides distasonis strain: ATCC8503 for biotransformation. The drug concentrations were measured before and after a 12-h incubation by liquid-chromatography-coupled mass spectrometry (LC–MS)

[7] = The drug is tested on Bacteroides pectinophilus strain: ATCC43243 for biotransformation. The drug concentrations were measured before and after a 12-h incubation by liquid-chromatography-coupled mass spectrometry (LC–MS); settings: 2 µM
[8] = bacteroides stercoris, 12 h, 2 µM
Description: The drug is tested on Bacteroides stercoris strain: ATCC43183 for biotransformation. The drug concentrations were measured before and after a 12-h incubation by liquid-chromatography-coupled mass spectrometry (LC–MS)

[9] = The drug is tested on Bacteroides caccae strain: ATCC43185 for biotransformation. The drug concentrations were measured before and after a 12-h incubation by liquid-chromatography-coupled mass spectrometry (LC–MS); settings: 2 µM
[10] = The drug is tested on Odoribacter splanchnicus strain: fecal isolate for biotransformation. The drug concentrations were measured before and after a 12-h incubation by liquid-chromatography-coupled mass spectrometry (LC–MS); settings: 2 µM
[11] = bacteroides thetaiotaomicron, 12 h, 2 µM; remark: listed apart in the source
Description: The drug is tested on Bacteroides thetaiotaomicron strain: 3731 for biotransformation. The drug concentrations were measured before and after a 12-h incubation by liquid-chromatography-coupled mass spectrometry (LC–MS)

[12] = The drug is tested on Clostridium scindens strain: ATCC35704 for biotransformation. The drug concentrations were measured before and after a 12-h incubation by liquid-chromatography-coupled mass spectrometry (LC–MS); settings: 2 µM
[13] = The drug is tested on Bifidobacterium longum subsp. Infantis strain: CCUG52486 for biotransformation. The drug concentrations were measured before and after a 12-h incubation by liquid-chromatography-coupled mass spectrometry (LC–MS); settings: 2 µM
[14] = bacteroides intestinalis, 12 h, 2 µM
Description: The drug is tested on Bacteroides intestinalis strain: DSM17393 for biotransformation. The drug concentrations were measured before and after a 12-h incubation by liquid-chromatography-coupled mass spectrometry (LC–MS)

[15] = The drug is tested on Clostridium asparagiforme strain: DSM15981 for biotransformation. The drug concentrations were measured before and after a 12-h incubation by liquid-chromatography-coupled mass spectrometry (LC–MS); format: ADME; parameters: dose 2 uM, timepoint 0 vs 12 hours; settings: enterocloster asparagiformis, 2 µM
[16] = The drug is tested on Enterobacter cancerogenus strain: ATCC35316 for biotransformation. The drug concentrations were measured before and after a 12-h incubation by liquid-chromatography-coupled mass spectrometry (LC–MS); settings: 2 µM
[17] = The drug is tested on Bifidobacterium ruminantium strain: fecal isolate for biotransformation. The drug concentrations were measured before and after a 12-h incubation by liquid-chromatography-coupled mass spectrometry (LC–MS); settings: 2 µM
[18] = The drug is tested on Bacteroides fragilis strain: HMW610 for biotransformation. The drug concentrations were measured before and after a 12-h incubation by liquid-chromatography-coupled mass spectrometry (LC–MS); settings: 2 µM
[19] = The drug is tested on Eubacterium hallii strain: DSM3353 for biotransformation. The drug concentrations were measured before and after a 12-h incubation by liquid-chromatography-coupled mass spectrometry (LC–MS); settings: anaerobutyricum hallii, 2 µM
[20] = The drug is tested on Escherichia coli strain: BW25113 for biotransformation. The drug concentrations were measured before and after a 12-h incubation by liquid-chromatography-coupled mass spectrometry (LC–MS); settings: 2 µM

| Structure (SMILES) | Bacterial Biotransformation [1] | Bacterial Biotransformation [2] | Bacterial Biotransformation [3] | Bacterial Biotransformation [4] | Bacterial Biotransformation [5] | Bacterial Biotransformation [6] | Bacterial Biotransformation [7] | Bacterial Biotransformation [8] | Bacterial Biotransformation [9] | Bacterial Biotransformation [10] | Bacterial Biotransformation [11] | Bacterial Biotransformation [12] | Bacterial Biotransformation [13] | Bacterial Biotransformation [14] | Bacterial Biotransformation [15] | Bacterial Biotransformation [16] | Bacterial Biotransformation [17] | Bacterial Biotransformation [18] | Bacterial Biotransformation [19] | Bacterial Biotransformation [20] |
| --- | --- | --- | --- | --- | --- | --- | --- | --- | --- | --- | --- | --- | --- | --- | --- | --- | --- | --- | --- | --- |
| CSc1ccc2c(c1)C(N1CCN(C)CC1)Cc1ccccc1S2.O=C(O)/C=C\C(=O)O (configuration not stated) | Compound NOT metabolized | Compound NOT metabolized | Compound NOT metabolized | Compound NOT metabolized | Compound metabolized | Compound metabolized | Compound NOT metabolized | Compound NOT metabolized | Compound NOT metabolized | Compound NOT metabolized | Compound NOT metabolized | Compound metabolized | Compound NOT metabolized | Compound NOT metabolized | Compound NOT metabolized | Compound NOT metabolized | Compound NOT metabolized | Compound NOT metabolized | Compound NOT metabolized |  |
| NC12CC3CC(CC(C3)C1)C2 [AMANTADINE] | Compound NOT metabolized | Compound NOT metabolized | Compound NOT metabolized | Compound NOT metabolized | Compound NOT metabolized | Compound NOT metabolized | Compound NOT metabolized | Compound NOT metabolized | Compound NOT metabolized | Compound NOT metabolized | Compound NOT metabolized | Compound NOT metabolized | Compound NOT metabolized |  | Compound NOT metabolized | Compound NOT metabolized | Compound metabolized | Compound NOT metabolized | Compound NOT metabolized |  |
| CCC1(c2ccc(N)cc2)CCC(=O)NC1=O (configuration not stated) [AMINOGLUTETHIMIDE] | Compound NOT metabolized | Compound NOT metabolized |  | Compound NOT metabolized | Compound NOT metabolized |  | Compound NOT metabolized | Compound NOT metabolized | Compound NOT metabolized | Compound NOT metabolized | Compound NOT metabolized | Compound NOT metabolized | Compound NOT metabolized | Compound NOT metabolized | Compound NOT metabolized | Compound NOT metabolized |  | Compound NOT metabolized | Compound NOT metabolized | Compound NOT metabolized |
| NS(=O)(=O)c1cc2c(cc1Cl)N=C(CSCc1ccccc1)NS2(=O)=O [BENZTHIAZIDE] | Compound NOT metabolized | Compound NOT metabolized | Compound NOT metabolized | Compound NOT metabolized | Compound NOT metabolized | Compound NOT metabolized | Compound NOT metabolized | Compound NOT metabolized | Compound NOT metabolized | Compound NOT metabolized | Compound NOT metabolized | Compound NOT metabolized | Compound NOT metabolized | Compound NOT metabolized | Compound NOT metabolized | Compound NOT metabolized | Compound NOT metabolized | Compound NOT metabolized | Compound NOT metabolized |  |
| CCCc1nc(C(C)(C)O)c(C(=O)OCc2oc(=O)oc2C)n1Cc1ccc(-c2ccccc2-c2nnn[nH]2)cc1 [OLMESARTAN MEDOXOMIL] |  | Compound NOT metabolized |  | Compound metabolized | Compound metabolized | Compound metabolized | Compound metabolized | Compound metabolized | Compound metabolized | Compound metabolized |  | Compound metabolized | Compound metabolized | Compound metabolized | Compound metabolized | Compound metabolized |  | Compound metabolized | Compound metabolized | Compound metabolized |
| CCOc1cc(CC(=O)N[C@@H](CC(C)C)c2ccccc2N2CCCCC2)ccc1C(=O)O [REPAGLINIDE] | Compound NOT metabolized | Compound NOT metabolized |  |  | Compound metabolized | Compound metabolized | Compound NOT metabolized | Compound metabolized |  | Compound NOT metabolized | Compound NOT metabolized | Compound NOT metabolized | Compound NOT metabolized | Compound metabolized | Compound metabolized | Compound NOT metabolized | Compound NOT metabolized | Compound metabolized | Compound metabolized |  |
| Cc1nc2n(c(=O)c1CCN1CCC(c3noc4cc(F)ccc34)CC1)CCCC2 [RISPERIDONE] | Compound metabolized | Compound NOT metabolized | Compound NOT metabolized | Compound NOT metabolized | Compound metabolized | Compound NOT metabolized |  | Compound NOT metabolized | Compound metabolized | Compound metabolized | Compound NOT metabolized | Compound metabolized | Compound NOT metabolized | Compound NOT metabolized | Compound metabolized | Compound metabolized |  | Compound metabolized | Compound metabolized | Compound NOT metabolized |
| CCS(=O)(=O)CCn1c([N+](=O)[O-])cnc1C [TINIDAZOLE] | Compound metabolized | Compound metabolized | Compound metabolized | Compound NOT metabolized | Compound metabolized | Compound metabolized | Compound NOT metabolized | Compound metabolized | Compound metabolized | Compound metabolized | Compound metabolized | Compound metabolized | Compound metabolized | Compound metabolized | Compound metabolized | Compound NOT metabolized | Compound metabolized | Compound metabolized | Compound metabolized |  |
